What was measured:
[1] = system: Tyrosine-protein kinase ABL1 (Homo sapiens), P00519 [F317L]
[2] = system: Tyrosine-protein kinase ABL1 (Homo sapiens), P00519 [Q252H]
[3] = target: Tyrosine-protein kinase ABL2 (Homo sapiens) (UniProt P42684)
[4] = target: Cyclin-dependent kinase 4 (Homo sapiens) (UniProt P11802)
[5] = target: Citron Rho-interacting kinase (Homo sapiens) (UniProt O14578)
[6] = system: Epidermal growth factor receptor (Homo sapiens), P00533 [L858R]
[7] = target: T1, Rhodopsin kinase GRK7 (Homo sapiens) (UniProt Q8WTQ7)
T1 sequence (whole entry): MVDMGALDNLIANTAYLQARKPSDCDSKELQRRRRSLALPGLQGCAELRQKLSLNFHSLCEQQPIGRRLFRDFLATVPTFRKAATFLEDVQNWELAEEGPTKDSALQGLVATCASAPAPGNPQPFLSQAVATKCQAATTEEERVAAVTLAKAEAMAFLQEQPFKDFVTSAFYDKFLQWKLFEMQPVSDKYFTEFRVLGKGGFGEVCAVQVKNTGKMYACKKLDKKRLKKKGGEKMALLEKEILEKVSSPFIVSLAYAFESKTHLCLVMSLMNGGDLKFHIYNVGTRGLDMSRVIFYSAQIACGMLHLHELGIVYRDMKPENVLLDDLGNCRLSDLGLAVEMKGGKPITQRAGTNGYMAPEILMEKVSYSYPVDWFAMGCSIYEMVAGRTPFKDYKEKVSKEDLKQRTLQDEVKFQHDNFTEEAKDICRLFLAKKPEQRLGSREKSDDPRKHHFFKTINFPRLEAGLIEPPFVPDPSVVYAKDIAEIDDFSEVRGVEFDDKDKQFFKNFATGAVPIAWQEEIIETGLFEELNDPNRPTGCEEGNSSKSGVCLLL

[8] = target: Serine/threonine-protein kinase MRCK beta (Homo sapiens) (UniProt Q9Y5S2)
[9] = target: Serine/threonine-protein kinase NIM1 (Homo sapiens) (UniProt Q8IY84)
[10] = target: Phosphatidylinositol 4,5-bisphosphate 3-kinase catalytic subunit alpha isoform (Homo sapiens) (UniProt P42336)
Sequence of Phosphatidylinositol 4,5-bisphosphate 3-kinase catalytic subunit alpha isoform (Homo sapiens) (P42336 whole entry, canonical isoform): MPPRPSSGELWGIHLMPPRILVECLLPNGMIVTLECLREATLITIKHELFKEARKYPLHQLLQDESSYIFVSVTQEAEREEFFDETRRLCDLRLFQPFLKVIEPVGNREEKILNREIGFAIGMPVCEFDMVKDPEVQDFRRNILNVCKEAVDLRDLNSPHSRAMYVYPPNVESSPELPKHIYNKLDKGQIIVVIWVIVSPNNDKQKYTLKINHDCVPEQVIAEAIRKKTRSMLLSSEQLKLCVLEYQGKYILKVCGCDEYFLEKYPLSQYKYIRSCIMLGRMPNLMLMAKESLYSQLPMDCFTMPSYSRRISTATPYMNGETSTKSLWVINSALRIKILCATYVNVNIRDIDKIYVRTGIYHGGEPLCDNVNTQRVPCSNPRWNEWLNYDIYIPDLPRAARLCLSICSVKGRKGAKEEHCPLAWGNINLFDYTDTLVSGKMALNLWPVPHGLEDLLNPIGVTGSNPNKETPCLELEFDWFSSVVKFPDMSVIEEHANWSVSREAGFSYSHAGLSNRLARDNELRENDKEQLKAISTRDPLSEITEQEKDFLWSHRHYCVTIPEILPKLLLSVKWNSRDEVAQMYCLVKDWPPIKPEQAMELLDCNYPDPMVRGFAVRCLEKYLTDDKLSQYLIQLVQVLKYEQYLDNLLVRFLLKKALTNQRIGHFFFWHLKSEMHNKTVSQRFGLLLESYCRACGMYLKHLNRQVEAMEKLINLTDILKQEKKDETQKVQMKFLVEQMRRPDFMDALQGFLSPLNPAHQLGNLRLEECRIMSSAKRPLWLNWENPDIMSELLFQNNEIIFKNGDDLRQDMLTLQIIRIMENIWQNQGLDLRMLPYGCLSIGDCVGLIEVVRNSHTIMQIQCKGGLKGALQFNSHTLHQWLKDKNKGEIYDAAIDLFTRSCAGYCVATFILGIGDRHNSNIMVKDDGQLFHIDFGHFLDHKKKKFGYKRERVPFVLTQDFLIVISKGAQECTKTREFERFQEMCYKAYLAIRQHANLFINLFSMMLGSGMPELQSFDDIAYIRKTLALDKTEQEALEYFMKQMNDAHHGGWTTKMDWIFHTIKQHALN

[11] = target: T2, cGMP-dependent protein kinase 1 (Homo sapiens) (UniProt Q13976)
T2 sequence (whole entry): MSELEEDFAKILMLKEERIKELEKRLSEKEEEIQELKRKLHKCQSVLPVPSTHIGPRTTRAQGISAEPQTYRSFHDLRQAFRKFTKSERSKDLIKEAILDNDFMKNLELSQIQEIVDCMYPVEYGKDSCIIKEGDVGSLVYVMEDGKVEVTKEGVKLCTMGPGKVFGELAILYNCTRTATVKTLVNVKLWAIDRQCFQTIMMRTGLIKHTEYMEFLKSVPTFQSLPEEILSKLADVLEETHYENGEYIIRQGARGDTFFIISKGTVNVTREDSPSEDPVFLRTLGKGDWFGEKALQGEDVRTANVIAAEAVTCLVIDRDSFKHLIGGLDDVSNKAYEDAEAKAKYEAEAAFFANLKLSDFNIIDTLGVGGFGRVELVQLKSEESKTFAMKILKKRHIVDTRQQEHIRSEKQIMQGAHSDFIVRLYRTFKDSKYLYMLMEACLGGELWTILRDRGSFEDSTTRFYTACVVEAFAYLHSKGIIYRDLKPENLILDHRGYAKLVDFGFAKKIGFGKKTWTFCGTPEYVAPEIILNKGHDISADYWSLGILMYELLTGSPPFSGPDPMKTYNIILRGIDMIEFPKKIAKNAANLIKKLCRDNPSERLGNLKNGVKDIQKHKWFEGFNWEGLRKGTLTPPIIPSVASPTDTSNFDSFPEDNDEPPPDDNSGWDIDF

[12] = target: Ribosomal protein S6 kinase alpha-5 (Homo sapiens) (UniProt O75582)
Sequence of Ribosomal protein S6 kinase alpha-5 (Homo sapiens) (O75582 whole entry, looked up): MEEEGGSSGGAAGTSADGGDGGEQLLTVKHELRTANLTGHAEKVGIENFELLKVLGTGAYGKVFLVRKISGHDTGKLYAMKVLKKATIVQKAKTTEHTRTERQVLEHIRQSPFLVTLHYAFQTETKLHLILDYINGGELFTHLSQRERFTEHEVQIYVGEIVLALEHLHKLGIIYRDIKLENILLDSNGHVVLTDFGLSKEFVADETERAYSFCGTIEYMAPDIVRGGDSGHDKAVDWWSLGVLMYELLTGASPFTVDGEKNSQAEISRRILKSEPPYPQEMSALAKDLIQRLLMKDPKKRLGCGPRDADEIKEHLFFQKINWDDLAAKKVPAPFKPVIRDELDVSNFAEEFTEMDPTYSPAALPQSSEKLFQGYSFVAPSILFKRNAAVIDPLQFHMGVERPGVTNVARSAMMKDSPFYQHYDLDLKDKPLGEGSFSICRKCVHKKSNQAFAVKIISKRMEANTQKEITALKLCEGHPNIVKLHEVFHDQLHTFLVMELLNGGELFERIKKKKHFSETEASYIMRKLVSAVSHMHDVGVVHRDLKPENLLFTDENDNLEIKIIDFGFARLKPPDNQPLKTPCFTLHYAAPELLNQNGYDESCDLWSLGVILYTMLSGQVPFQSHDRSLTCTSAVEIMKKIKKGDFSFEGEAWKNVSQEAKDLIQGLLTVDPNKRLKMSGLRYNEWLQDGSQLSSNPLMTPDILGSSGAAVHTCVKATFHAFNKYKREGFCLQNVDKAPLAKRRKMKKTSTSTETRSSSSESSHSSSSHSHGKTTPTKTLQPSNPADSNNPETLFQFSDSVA

[13] = target: Ribosomal protein S6 kinase alpha-2 (Homo sapiens) (UniProt Q15349)
[14] = target: TRAF2 and NCK-interacting protein kinase (Homo sapiens) (UniProt Q9UKE5)
Sequence of TRAF2 and NCK-interacting protein kinase (Homo sapiens) (Q9UKE5 whole entry, looked up): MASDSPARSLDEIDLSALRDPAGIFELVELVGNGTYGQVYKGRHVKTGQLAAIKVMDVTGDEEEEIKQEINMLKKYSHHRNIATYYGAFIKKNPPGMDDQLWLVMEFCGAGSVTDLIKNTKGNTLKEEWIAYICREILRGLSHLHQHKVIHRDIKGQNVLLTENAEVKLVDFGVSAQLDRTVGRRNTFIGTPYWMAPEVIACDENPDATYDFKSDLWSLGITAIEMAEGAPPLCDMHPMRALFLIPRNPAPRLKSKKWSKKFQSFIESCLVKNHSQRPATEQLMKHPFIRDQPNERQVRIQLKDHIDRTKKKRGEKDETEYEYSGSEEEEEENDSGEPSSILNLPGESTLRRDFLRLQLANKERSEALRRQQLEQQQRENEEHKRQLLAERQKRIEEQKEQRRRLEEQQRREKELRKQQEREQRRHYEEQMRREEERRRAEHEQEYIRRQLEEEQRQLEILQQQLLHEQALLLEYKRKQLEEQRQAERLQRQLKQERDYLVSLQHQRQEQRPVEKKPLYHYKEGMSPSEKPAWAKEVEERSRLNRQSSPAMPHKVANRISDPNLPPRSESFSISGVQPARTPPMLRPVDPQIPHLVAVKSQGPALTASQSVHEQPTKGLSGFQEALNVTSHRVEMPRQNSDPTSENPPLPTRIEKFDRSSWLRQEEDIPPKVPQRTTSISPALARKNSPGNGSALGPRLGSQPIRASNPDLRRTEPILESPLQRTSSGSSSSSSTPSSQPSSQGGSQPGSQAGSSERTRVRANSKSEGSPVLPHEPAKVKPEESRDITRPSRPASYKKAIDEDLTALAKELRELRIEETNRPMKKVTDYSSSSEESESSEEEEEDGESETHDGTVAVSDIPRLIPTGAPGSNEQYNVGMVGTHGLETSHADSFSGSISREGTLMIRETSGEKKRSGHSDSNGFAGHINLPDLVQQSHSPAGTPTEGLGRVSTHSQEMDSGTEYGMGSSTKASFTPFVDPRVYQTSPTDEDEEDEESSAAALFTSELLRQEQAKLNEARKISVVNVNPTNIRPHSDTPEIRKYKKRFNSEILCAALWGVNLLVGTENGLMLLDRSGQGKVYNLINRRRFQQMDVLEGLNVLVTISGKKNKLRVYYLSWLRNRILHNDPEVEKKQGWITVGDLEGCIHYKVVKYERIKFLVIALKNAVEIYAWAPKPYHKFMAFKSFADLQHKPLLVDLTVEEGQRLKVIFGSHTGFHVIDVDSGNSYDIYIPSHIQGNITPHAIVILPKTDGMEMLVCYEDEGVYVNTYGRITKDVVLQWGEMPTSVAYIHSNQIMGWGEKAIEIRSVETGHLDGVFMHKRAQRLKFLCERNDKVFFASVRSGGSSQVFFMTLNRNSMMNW

[15] = target: NT-3 growth factor receptor (Homo sapiens) (UniProt Q16288)
[16] = target: Serine/threonine-protein kinase 32A (Homo sapiens) (UniProt Q8WU08)
Sequence of Serine/threonine-protein kinase 32A (Homo sapiens) (Q8WU08 whole entry): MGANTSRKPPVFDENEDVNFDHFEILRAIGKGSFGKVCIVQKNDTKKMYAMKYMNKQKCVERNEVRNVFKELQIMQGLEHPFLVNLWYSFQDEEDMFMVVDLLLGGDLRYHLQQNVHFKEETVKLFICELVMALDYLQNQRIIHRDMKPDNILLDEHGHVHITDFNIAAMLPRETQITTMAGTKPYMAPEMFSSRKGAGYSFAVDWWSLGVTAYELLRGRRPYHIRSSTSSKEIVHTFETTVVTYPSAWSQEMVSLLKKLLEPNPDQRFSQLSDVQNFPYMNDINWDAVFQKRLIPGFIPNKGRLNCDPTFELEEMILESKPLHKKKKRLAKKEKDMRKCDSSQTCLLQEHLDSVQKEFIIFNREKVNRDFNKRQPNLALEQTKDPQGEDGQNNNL

[17] = target: T3, Tyrosine-protein kinase ZAP-70 (Homo sapiens) (UniProt P43403)
T3 sequence (whole entry): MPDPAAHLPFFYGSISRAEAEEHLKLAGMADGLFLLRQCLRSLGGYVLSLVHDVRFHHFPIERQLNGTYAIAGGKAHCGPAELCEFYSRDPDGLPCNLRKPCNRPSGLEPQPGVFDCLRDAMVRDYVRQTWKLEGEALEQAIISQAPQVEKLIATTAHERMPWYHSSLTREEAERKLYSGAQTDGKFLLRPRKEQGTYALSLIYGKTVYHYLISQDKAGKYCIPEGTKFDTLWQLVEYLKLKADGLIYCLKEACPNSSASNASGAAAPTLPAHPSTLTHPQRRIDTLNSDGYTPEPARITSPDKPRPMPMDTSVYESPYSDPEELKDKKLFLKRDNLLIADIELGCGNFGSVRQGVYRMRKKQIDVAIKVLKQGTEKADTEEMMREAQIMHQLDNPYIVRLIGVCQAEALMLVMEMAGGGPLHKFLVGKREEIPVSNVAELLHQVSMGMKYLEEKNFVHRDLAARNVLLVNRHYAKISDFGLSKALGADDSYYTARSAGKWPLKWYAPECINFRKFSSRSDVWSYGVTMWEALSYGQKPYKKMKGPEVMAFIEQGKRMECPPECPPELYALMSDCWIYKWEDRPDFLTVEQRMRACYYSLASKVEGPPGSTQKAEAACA

[18] = target: Sodium-dependent noradrenaline transporter (Homo sapiens, UniProt P23975); details: Compound concentration 10.0 uM
Rattus norvegicus = species: Rattus norvegicus; details: Compound concentration 10.0 uM
[19] = Compound concentration 1000.0 nM
[20] = Compound concentration 100.0 nM

Sequence of Tyrosine-protein kinase ABL2 (Homo sapiens) (P42684 whole entry): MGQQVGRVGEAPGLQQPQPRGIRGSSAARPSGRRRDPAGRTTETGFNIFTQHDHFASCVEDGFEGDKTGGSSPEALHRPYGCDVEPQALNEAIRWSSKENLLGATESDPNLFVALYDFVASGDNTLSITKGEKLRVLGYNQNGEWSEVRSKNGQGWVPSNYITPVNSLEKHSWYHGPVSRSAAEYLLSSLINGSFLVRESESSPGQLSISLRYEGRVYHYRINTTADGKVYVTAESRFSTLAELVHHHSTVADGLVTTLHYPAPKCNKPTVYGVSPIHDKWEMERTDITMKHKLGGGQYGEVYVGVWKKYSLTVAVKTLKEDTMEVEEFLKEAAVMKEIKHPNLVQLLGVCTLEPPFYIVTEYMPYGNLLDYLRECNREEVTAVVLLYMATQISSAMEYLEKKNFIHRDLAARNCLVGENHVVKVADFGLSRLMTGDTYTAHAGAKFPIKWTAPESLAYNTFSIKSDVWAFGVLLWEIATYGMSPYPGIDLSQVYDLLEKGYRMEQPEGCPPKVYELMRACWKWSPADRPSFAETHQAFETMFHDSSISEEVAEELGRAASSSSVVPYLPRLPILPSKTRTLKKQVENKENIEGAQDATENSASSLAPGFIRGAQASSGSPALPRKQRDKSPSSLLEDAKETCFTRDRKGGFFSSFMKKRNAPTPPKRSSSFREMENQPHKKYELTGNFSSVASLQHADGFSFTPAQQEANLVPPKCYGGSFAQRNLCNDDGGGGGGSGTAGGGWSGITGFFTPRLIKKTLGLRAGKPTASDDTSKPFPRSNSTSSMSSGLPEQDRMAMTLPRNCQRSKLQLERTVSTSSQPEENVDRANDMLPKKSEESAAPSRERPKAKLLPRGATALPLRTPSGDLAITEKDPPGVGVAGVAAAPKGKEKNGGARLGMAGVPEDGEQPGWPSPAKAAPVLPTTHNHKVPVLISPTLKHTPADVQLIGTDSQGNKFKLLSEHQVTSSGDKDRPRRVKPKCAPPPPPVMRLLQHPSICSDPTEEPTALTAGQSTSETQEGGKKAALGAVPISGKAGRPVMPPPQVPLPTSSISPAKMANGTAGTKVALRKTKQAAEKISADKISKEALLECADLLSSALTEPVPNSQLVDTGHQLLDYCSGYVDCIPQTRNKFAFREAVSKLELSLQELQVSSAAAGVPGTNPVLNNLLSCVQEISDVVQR

C[C@@H]1CN(c2cc(-c3nn(C)c4ccc(OC5(C)CC5)cc34)ncn2)C[C@H](C)O1 [MLi-2-NC]
inactive: residual activity [1, 19] 86% | residual activity [2, 19] 58% | residual activity [3, 19] 100% | residual activity [4, 19] 71% | residual activity [5, 19] 100% | residual activity [6, 19] 95% | residual activity [7, 19] 100% | residual activity [8, 19] 100% | residual activity [9, 19] 74% | residual activity [10, 19] 100% | residual activity [11, 19] 100% | residual activity [12, 19] 100% | residual activity [13, 19] 100% | residual activity [14, 19] 80% | residual activity [15, 19] 65% | residual activity [16, 19] 78% | residual activity [17, 19] 100% | inhibition [18] 30.6% | inhibition (Rattus norvegicus) 46.1%

C[C@@H]1CN(c2cc(-c3n[nH]c4ccc(OC5(C)CC5)cc34)ncn2)C[C@H](C)O1 [MLi-2]
inactive: residual activity [1, 20] 82% | residual activity [2, 20] 64% | residual activity [3, 20] 73% | residual activity [4, 20] 68% | residual activity [5, 20] 69% | residual activity [6, 20] 82% | residual activity [7, 20] 64% | residual activity [8, 20] 93% | residual activity [9, 20] 72% | residual activity [10, 20] 100% | residual activity [11, 20] 100% | residual activity [12, 20] 97% | residual activity [13, 20] 100% | residual activity [14, 20] 100% | residual activity [15, 20] 86% | residual activity [16, 20] 92% | residual activity [17, 20] 83% | inhibition [18] 7.45% | inhibition (Rattus norvegicus) 5.96%

— ChEMBL document CHEMBL4507291 (2021)
